Measured values taken from US12495798B2, “Nicotinamide compound and herbicidal composition comprising compound” (KOREA RESEARCH INSTITUTE OF CHEMICAL TECHNOLOGY, priority 2019, dated 2025).

Key:
Assay type in all cases: in vivo
black nightshade = experiment: Herbicidal activity test against upland field weeds (foliar treatment test); design: key to Foliar treatment herbicidal activity, black nightshade: 0 (no control); 100 (complete control); settings: 50 g ai/ha, scale 0-100
How it was run: (§1)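 Visual 0–100 control ratings relative to untreated plants, taken 14 (or 21) days after spraying foliage at 50 or 75 g a.i./ha. Spray solution: 50% acetone with 0.1% Tween-20; plants kept in greenhouse at 30±5 °C, 14 h light/10 h dark.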

indian jointvetch = experiment: as above; settings: 50 g ai/ha, scale 0-100
How it was run: as §1

velvetleaf = experiment: as above; settings: Abutilon theophrasti, 50 g ai/ha, scale 0-100, read-out: Foliar treatment herbicidal activity, velvet leaf
How it was run: as §1

cocklebur = experiment: as above; settings: Xanthium strumarium, 50 g ai/ha, scale 0-100
How it was run: as §1

corn = experiment: Phytotoxicity test for upland field crops (foliar treatment test); design: key: 0 (no harm); 9 (complete withered)
How it was run: (§2)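 Spray-booth foliar treatment of greenhouse-grown crops at 19˜300 g a.i./ha. Visual crop injury was scored 0–9 against untreated plants at 7 and 14 days.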

cotton = experiment: as above; design: key: 0 (no harm); 9 (complete withered)
How it was run: as §2

rice = experiment: as above; design: key: 0 (no harm); 9 (complete withered)
How it was run: as §2

soybean = experiment: as above; design: key: 0 (no harm); 9 (complete withered)
How it was run: as §2

wheat = experiment: as above; design: key: 0 (no harm); 9 (complete withered)
How it was run: as §2

[1] = 50 g ai/ha, Corn (7 days after treatment)
[2] = 50 g ai/ha, Corn (14 days after treatment)
[3] = 100 g ai/ha, Corn (7 days after treatment)
[4] = 100 g ai/ha, Corn (14 days after treatment)
[5] = 50 g ai/ha, Cotton (7 days after treatment)
[6] = 50 g ai/ha, Cotton (14 days after treatment)
[7] = 100 g ai/ha, Cotton (7 days after treatment)
[8] = 100 g ai/ha, Cotton (14 days after treatment)
[9] = 50 g ai/ha, Rice (7 days after treatment)
[10] = 50 g ai/ha, Rice (14 days after treatment)
[11] = 100 g ai/ha, Rice (7 days after treatment)
[12] = 100 g ai/ha, Rice (14 days after treatment)
[13] = 50 g ai/ha, Soybean (7 days after treatment)
[14] = 50 g ai/ha, Soybean (14 days after treatment)
[15] = 100 g ai/ha, Soybean (7 days after treatment)
[16] = 100 g ai/ha, Soybean (14 days after treatment)
[17] = 50 g ai/ha, Wheat (7 days after treatment)
[18] = 50 g ai/ha, Wheat (14 days after treatment)
[19] = 100 g ai/ha, Wheat (7 days after treatment)
[20] = 100 g ai/ha, Wheat (14 days after treatment)

| SMILES | Foliar treatment herbicidal activity, black nightshade (black nightshade) | pest or weed control at 50 g/ha (indian jointvetch) [%] | pest or weed control at 50 g/ha (velvetleaf) [%] | pest or weed control at 50 g/ha (cocklebur) [%] | Foliar treatment phytotoxicity, Corn (corn; [1]) | Foliar treatment phytotoxicity, Corn (corn; [2]) | Foliar treatment phytotoxicity, Corn (corn; [3]) | Foliar treatment phytotoxicity, Corn (corn; [4]) | Foliar treatment phytotoxicity, Cotton (cotton; [5]) | Foliar treatment phytotoxicity, Cotton (cotton; [6]) | Foliar treatment phytotoxicity, Cotton (cotton; [7]) | Foliar treatment phytotoxicity, Cotton (cotton; [8]) | Foliar treatment phytotoxicity, Rice (rice; [9]) | Foliar treatment phytotoxicity, Rice (rice; [10]) | Foliar treatment phytotoxicity, Rice (rice; [11]) | Foliar treatment phytotoxicity, Rice (rice; [12]) | Foliar treatment phytotoxicity, Wheat (wheat; [17]) | Foliar treatment phytotoxicity, Wheat (wheat; [18]) | Foliar treatment phytotoxicity, Wheat (wheat; [19]) | Foliar treatment phytotoxicity, Wheat (wheat; [20]) | further results |
| --- | --- | --- | --- | --- | --- | --- | --- | --- | --- | --- | --- | --- | --- | --- | --- | --- | --- | --- | --- | --- | --- |
| Cc1nc(COCc2nc(C(F)(F)F)ccc2C(=O)Nc2nnnn2C)nn1C [Compound No. 2-116, 2-(((1,5-dimethyl-1H-1,2,4-triazol-3-yl)methoxy)methyl)-N-(1-methyl-1H-tetrazol-5-yl)-6-(trifluoromethyl)nicotinamide] | 100 | 40 | 90 | 98 | 1 | 0 | 2 | 2 | 2 | 1 | 3 | 2 | 4 | 5 | 4 | 5 | 0 | 0 | 0 | 0 | Foliar treatment phytotoxicity, Soybean (soybean; [13]): 2; Foliar treatment phytotoxicity, Soybean (soybean; [14]): 3; Foliar treatment phytotoxicity, Soybean (soybean; [15]): 3; Foliar treatment phytotoxicity, Soybean (soybean; [16]): 5 |
| Cn1nc(COCc2nc(C(F)(F)F)ccc2C(=O)Nc2nnnn2C)nc1C#N [Compound No. 2-134, 2-(((5-cyano-1-methyl-1H-1,2,4-triazol-3-yl)methoxy)methyl)-N-(1-methyl-1H-tetrazol-5-yl)-6-(trifluoromethyl)nicotinamide] | 100 | 70 | 60 | 50 | 0 | 0 | 0 | 0 | 3 | 2 | 3 | 8 | 3 | 6 | 3 | 7 | 0 | 0 | 0 | 0 | Foliar treatment phytotoxicity, Soybean (soybean; [13]): 4; Foliar treatment phytotoxicity, Soybean (soybean; [14]): 6; Foliar treatment phytotoxicity, Soybean (soybean; [15]): 4; Foliar treatment phytotoxicity, Soybean (soybean; [16]): 8 |
| Cc1nc(COCc2nc(C(F)(F)F)ccc2C(=S)Nc2nnnn2C)nn1C [Compound No. 2-117, 2-(((1,5-dimethyl-1H-1,2,4-triazol-3-yl)methoxy)methyl)-N-(1-methyl-1H-tetrazol-5-yl)-6-(trifluoromethyl)pyridin-3-carbothioamide] | 100 | 40 | 90 | 90 | 1 | 1 | 3 | 2 | 3 | 2 | 4 | 2 | 3 | 6 | 4 | 5 | 0 | 0 | 1 | 0 | Foliar treatment phytotoxicity, Soybean (soybean; [13]): 3; Foliar treatment phytotoxicity, Soybean (soybean; [14]): 5; Foliar treatment phytotoxicity, Soybean (soybean; [15]): 4; Foliar treatment phytotoxicity, Soybean (soybean; [16]): 6 |
| Cn1nnc(CSCc2nc(C(F)(F)F)ccc2C(=O)N(c2nnnn2C)S(C)(=O)=O)n1 [Compound No. 2-110, N-(1-methyl-1H-tetrazol-5-yl)-2-((((2-methyl-2H-tetrazol-5-yl)methyl)thio)methyl)-N-(methylsulfonyl)-6-(trifluoromethyl)nicotinamide] | 100 | 95 | 80 | 95 | 0 | 0 | 0 | 0 | – | – | – | – | – | – | – | – | 0 | 0 | 0 | 0 | – |
| CON(Cc1nnn(C)n1)Cc1nc(C(F)(F)F)ccc1C(=O)Nc1nnnn1C [Compound No. 2-97, 2-((methoxy((2-methyl-2H-tetrazol-5-yl)methyl)amino)methyl)-N-(1-methyl-1H-tetrazol-5-yl)-6-(trifluoromethyl)nicotinamide] | 100 | 95 | 95 | 95 | 0 | 0 | 2 | 1 | 5 | 9 | 6 | 9 | 6 | 8 | 6 | 9 | 0 | 0 | 0 | 0 | Foliar treatment phytotoxicity, Soybean (soybean; [13]): 5; Foliar treatment phytotoxicity, Soybean (soybean; [14]): 6; Foliar treatment phytotoxicity, Soybean (soybean; [15]): 7; Foliar treatment phytotoxicity, Soybean (soybean; [16]): 9 |
| Cn1nc(COCc2nc(C(F)(F)F)ccc2C(=O)Nc2nnnn2C)nc1Br [Compound No. 2-136, 2-(((5-bromo-1-methyl-1H-1,2,4-triazol-3-yl)methoxy)methyl)-N-(1-methyl-1H-tetrazol-5-yl)-6-(trifluoromethyl)nicotinamide] | – | 20 | 40 | 95 | 0 | 0 | 2 | 3 | 3 | 6 | 3 | 8 | 4 | 6 | 5 | 7 | 0 | 0 | 0 | 0 | pest or weed control at 50 g/ha (black nightshade; Solanum nigrum): 95%; Foliar treatment phytotoxicity, Soybean (soybean; [13]): 4; Foliar treatment phytotoxicity, Soybean (soybean; [14]): 6; Foliar treatment phytotoxicity, Soybean (soybean; [15]): 4; Foliar treatment phytotoxicity, Soybean (soybean; [16]): 6 |
